Measured values taken from patent publication US8883963B2 (Cadila Healthcare Limited, priority 2007, dated 2014).

Experiments:
[1] = Stability in liver microsomes; assay type: in vitro ADME; settings: 2 μM peptidomimetic, human liver microsomes, 37° C.; for half-life at 2 μM: pH 7.8, read-out: half-life (t1/2) when incubated with liver microsomes
Method: (§1) Reactions were terminated by the addition of TFA/H2O (15 mL, 10% (v/v)). […] The column was equilibrated with TFA/H20, at a flow rate of 1 mL/min.

[2] = Stability in simulated intestinal fluid; assay type: in vitro ADME; settings: 2 μM peptidomimetic, simulated intestinal fluid pH 7.5, 37° C.; for half-life at 2 μM: read-out: half-life (t1/2) when incubated with simulated intestinal fluid
Method: as §1

[3] = test system: RIN5F (Rat Insulinoma) cells; assay: In vitro glucose-dependent insulin secretion (RIN5F cell assay screening protocol); assay type: cell-based; settings: 16.7 mM glucose load
DPP IV = DPP IV (Homo sapiens, UniProt P27487); assay: Stability against DPP IV enzyme; assay type: in vitro ADME; settings: 37° C.; for % degradation of peptidomimetics in 24 h when incubated with DPP-IV enzyme: 2 μM peptidomimetic; for half-life at 2 μM: DPP IV enzyme, pH 7.8, 2 μM peptidomimetic, read-out: half-life (t1/2) when incubated with DPP-IV enzyme
Method: as §1

Human GLP-1 receptor = target: T1, Human GLP-1 receptor (Homo sapiens, UniProt P43220); assay: In vitro Human GLP-1 R agonist activity (cyclic AMP determination) in CHO/human GLP1R cells; assay type: cell-based
T1 construct: The full-length cDNA was cloned in pcDNA3.1(+); expressed in transfected cells

[4] = Stability in human plasma; assay type: in vitro ADME; settings: 2 μM peptidomimetic, pooled human plasma, 37° C.; for half-life at 2 μM: pH 7.8, read-out: half-life (t1/2) when incubated with human plasma
Method: as §1

[5] = Stability in simulated gastric fluid; assay type: in vitro ADME; settings: 2 μM peptidomimetic, simulated gastric fluid pH 1.5, 37° C.; for half-life at 2 μM: read-out: half-life (t1/2) when incubated with simulated gastric fluid
Method: as §1

T1 sequence (P43220 24-463): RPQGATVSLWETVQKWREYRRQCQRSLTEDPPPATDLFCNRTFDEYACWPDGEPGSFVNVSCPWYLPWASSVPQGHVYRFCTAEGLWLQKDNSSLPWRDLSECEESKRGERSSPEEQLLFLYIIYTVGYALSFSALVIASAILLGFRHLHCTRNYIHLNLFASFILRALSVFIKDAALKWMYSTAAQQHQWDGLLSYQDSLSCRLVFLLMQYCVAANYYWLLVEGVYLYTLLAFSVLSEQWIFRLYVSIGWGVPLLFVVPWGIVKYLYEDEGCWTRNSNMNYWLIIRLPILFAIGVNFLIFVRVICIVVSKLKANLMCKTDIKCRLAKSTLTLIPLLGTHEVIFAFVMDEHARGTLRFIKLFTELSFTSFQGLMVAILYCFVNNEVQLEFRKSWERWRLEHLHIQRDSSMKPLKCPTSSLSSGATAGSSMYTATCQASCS
DPP IV, sequence (P27487 whole entry, species assumed): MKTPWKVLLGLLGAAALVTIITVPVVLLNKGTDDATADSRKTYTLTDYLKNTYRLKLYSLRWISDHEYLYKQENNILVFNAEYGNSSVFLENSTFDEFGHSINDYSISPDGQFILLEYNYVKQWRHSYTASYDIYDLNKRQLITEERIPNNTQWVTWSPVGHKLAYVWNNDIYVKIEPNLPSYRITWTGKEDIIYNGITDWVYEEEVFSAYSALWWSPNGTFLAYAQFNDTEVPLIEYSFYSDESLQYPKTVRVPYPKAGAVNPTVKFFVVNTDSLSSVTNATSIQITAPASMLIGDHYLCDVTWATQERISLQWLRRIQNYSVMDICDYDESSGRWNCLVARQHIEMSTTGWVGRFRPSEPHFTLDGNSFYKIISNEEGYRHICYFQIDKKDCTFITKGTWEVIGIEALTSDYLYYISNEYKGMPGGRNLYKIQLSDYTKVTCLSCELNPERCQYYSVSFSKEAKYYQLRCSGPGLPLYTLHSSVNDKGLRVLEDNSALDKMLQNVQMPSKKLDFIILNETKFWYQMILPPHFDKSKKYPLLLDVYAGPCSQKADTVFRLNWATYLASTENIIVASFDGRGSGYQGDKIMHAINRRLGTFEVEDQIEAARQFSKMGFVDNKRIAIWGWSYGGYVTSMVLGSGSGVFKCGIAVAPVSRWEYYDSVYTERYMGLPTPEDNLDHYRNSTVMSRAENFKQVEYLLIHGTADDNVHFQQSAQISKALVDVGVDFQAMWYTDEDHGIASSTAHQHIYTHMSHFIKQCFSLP

SMILES | % degradation of peptidomimetics in 24 h when incubated with liver microsomes [1] [%] | half-life at 2 μM [1] [h] | % degradation of peptidomimetics in 24 h when incubated with simulated intestinal fluid [2] | half-life at 2 μM [2] [h] | Insulin secretion ([3]; 0.1 nM test compd.) [pg/µg/h] | Insulin secretion ([3]; 1 nM test compd.) [pg/µg/h] | Insulin secretion ([3]; 10 nM test compd.) [pg/µg/h] | % degradation of peptidomimetics in 24 h when incubated with DPP-IV enzyme (DPP IV) [%] | Human GLP-1 R activity (cAMP release), % activity with respect to control (Human GLP-1 receptor; 1 nM test compound) [%] | Human GLP-1 R activity (cAMP release), % activity with respect to control (Human GLP-1 receptor; 10 nM test compound) [%] | Human GLP-1 R activity (cAMP release), % activity with respect to control (Human GLP-1 receptor; 100 nM test compound) [%] | Human GLP-1 R activity (cAMP release), % activity with respect to control (Human GLP-1 receptor; 1 μM test compound) [%] | Human GLP-1 R activity (cAMP release), % activity with respect to control (Human GLP-1 receptor; 10 μM test compound) [%] | half-life (t1/2) when incubated with human plasma [4] | % degradation of peptidomimetics in 24 h when incubated with human plasma [4] [%] | % degradation of peptidomimetics in 24 h when incubated with simulated gastric fluid [5] [%] | half-life at 2 μM [5] [h] | half-life at 2 μM (DPP IV) [h] | half-life at 2 μM [4] [h] | also measured
CCc1cc(OC)ccc1-c1ccc(CC(NC(=O)[C@H](CC(=O)O)NC(=O)[C@H](CO)NC(=O)[C@@H](NC(=O)[C@H](Cc2ccccc2)NC(=O)[C@@H](NC(=O)CNC(=O)C(CCC#N)NC(=O)C(C)(C)NC(=O)[C@@H](N)Cc2c[nH]cn2)[C@@H](C)O)[C@@H](C)O)C(=O)NC(CCCc2ccc(F)cc2C(F)(F)F)C(N)=O)cc1 (single isomer, unassigned) [compound 80] | 100 | 0.5 | 100% | 0.5 | 16.2 ± 0.13 | 22.4 ± 0.19 | 36.2 ± 0.09 | 72 | 66 ± 0.022 | 97 ± 0.46 | 99 ± 0.41 | 99 ± 0.66 | 99 ± 0.03 | (9) h | 70 | 100 | 0.5 | – | – | –
CCc1cc(OC)ccc1-c1ccc(CC(NC(=O)[C@H](CC(=O)O)NC(=O)[C@H](CO)NC(=O)[C@@H](NC(=O)[C@H](Cc2ccccc2)NC(=O)[C@@H](NC(=O)CNC(=O)C(CCC#N)NC(=O)C(C)(C)NC(=O)[C@@H](N)Cc2c[nH]cn2)[C@@H](C)O)[C@@H](C)O)C(=O)NC(CCCc2ccc(Cl)cc2C)C(N)=O)cc1 (single isomer, unassigned) [compound 32] | 100 | 0.5 | 100% | 0.5 | 12.1 ± 0.52 | 14.1 ± 0.16 | 28.0 ± 0.36 | 75 | 39 ± 0.11 | 80 ± 0.09 | 88 ± 0.06 | 96 ± 0.14 | 99 ± 0.19 | (9) h | 77 | 100 | 0.5 | – | – | –
CCc1cc(OC)ccc1-c1ccc(CC(NC(=O)[C@H](CC(=O)O)NC(=O)[C@H](CO)NC(=O)[C@@H](NC(=O)C(C)(Cc2ccccc2)NC(=O)[C@@H](NC(=O)CNC(=O)[C@H](CC(C(F)(F)F)C(F)(F)F)NC(=O)C(C)(C)NC(=O)[C@@H](N)Cc2c[nH]cn2)[C@@H](C)O)[C@@H](C)O)C(=O)NC(CCCc2ccccc2)C(N)=O)cc1 (single isomer, unassigned) [compound 230] | 100 | 0.5 | 100 ) % | 0.5 | 12.1 ± 0.51 | 14.1 ± 0.19 | 28.1 ± 0.29 | 86 | 99 ± 0.12 | 99 ± 0.08 | 99 ± 0.11 | 99 ± 0.12 | 99 ± 0.16 | (9) h | 70 | 100 | 0.5 | – | – | –
CCc1cc(OC)ccc1-c1ccc(CC(NC(=O)[C@H](CC(=O)O)NC(=O)[C@H](CO)NC(=O)[C@@H](NC(=O)[C@H](Cc2ccccc2)NC(=O)[C@@H](NC(=O)CNC(=O)[C@H](CCC(N)=O)NC(=O)[C@H](CO)NC(=O)[C@@H](N)Cc2c[nH]cn2)[C@@H](C)O)[C@@H](C)O)C(=O)NC(CCCc2ccccc2C(F)(F)F)C(N)=O)cc1 (single isomer, unassigned) [compound 47] | 79 | 1 | 55% | – | 13.1 ± 0.11 | 14.9 ± 0.17 | 28.8 ± 0.44 | 76 | 55 ± 0.16 | 89 ± 0.05 | 93 ± 0.09 | 99 ± 0.02 | 99 ± 0.04 | – | 78 | 12 | – | 9 | 8 | half-life (t1/2) when incubated with simulated intestinal fluid [2]: (6) h; half-life (t1/2) when incubated with simulated gastric fluid [5]: (8) h
CCc1cc(OC)ccc1-c1ccc(CC(NC(=O)[C@H](CC(=O)O)NC(=O)[C@H](CO)NC(=O)[C@@H](NC(=O)[C@H](Cc2ccccc2)NC(=O)[C@@H](NC(=O)CNC(=O)C(CCC#N)NC(=O)C(C)(C)NC(=O)[C@@H](N)Cc2c[nH]cn2)[C@@H](C)O)[C@@H](C)O)C(=O)NC(CCCc2ccccc2Cl)C(N)=O)cc1 (single isomer, unassigned) [compound 82] | 84 | 2 | 00% | > 24 | 16.9 ± 0.22 | 22.8 ± 0.31 | 36.7 ± 0.34 | 00 | 78 ± 0.12 | 99 ± 0.15 | 99 ± 0.18 | 99 ± 0.03 | 99 ± 0.09 | – | 00 | 55 | 4 | > 24 | > 24 | –
CCc1cc(OC)ccc1-c1ccc(CC(NC(=O)[C@H](CC(=O)O)NC(=O)[C@H](CO)NC(=O)[C@@H](NC(=O)[C@H](Cc2ccccc2)NC(=O)[C@@H](NC(=O)CNC(=O)C(CCC#N)NC(=O)C(C)(C)NC(=O)[C@@H](N)Cc2c[nH]cn2)[C@@H](C)O)[C@@H](C)O)C(=O)NC(CCCc2ccc(C(F)(F)F)cc2F)C(N)=O)cc1 (single isomer, unassigned) [compound 81] | 86 | 2 | 00% | > 24 | 17.1 ± 0.15 | 23.1 ± 0.12 | 37.0 ± 0.19 | 00 | 69 ± 0.09 | 98 ± 0.07 | 99 ± 0.04 | 99 ± 0.01 | 99 ± 0.08 | – | 00 | 50 | 4 | > 24 | > 24 | –
